Consider two molecules from US11406600B2, “Anhydrous dasatinib-containing preparation” (SAWAI PHARMACEUTICAL CO., LTD., priority 2017, dated 2022).

The conditions of series [1]: 1.2 million Lux.·hr total illumination and 200 W·hr/m^2 total near-ultraviolet radiation energy; cited from earlier work.
Series [2] is described as follows: Total related substances (%) by liquid chromatography after light irradiation. To be noted: irradiated with 10000 Lux./hr of light for 5 days; peak area ratio, LC, 230 nm. Format: physicochemical. The protocol:
In the description, the purities of the anhydrous dasatinib were evaluated using liquid chromatography as an assessment of the stability. The ratio of the peak area of related substances derived from the anhydrous dasatinib to that of the anhydrous dasatinib was calculated to determine the total related substances (%).
(§1) In the anhydrous dasatinib-containing tablet having the film-coating part, the amount of the film-coating part and the percentage of the titanium oxide in the film-coating part were varied, respectively, and the color change (ΔE) and the total related substances (%) of the preparations irradiated with 10000 Lux./hr of light for 5 days were determined, respectively.
For the total related substances, the purities of the anhydrous dasatinib were evaluated using liquid chromatography as shown below. The ratio of the peak area of the related substances derived from the anhydrous dasatinib to that of the anhydrous dasatinib was calculated to determine the total related substances (%). Specifically, a column was octadecylsilated silica gels (particle size, 5 μm; column inner diameter, 4.6 mm; column length, 250 mm; GL Sciences), mobile phase A was 0.01 M aqueous potassium dihydrogen phosphate solution, mobile phase B was acetonitrile, and the detector was ultraviolet absorbance spectrophotometer (measured wavelength: 230 nm), respectively. […]

Series [3] is described as follows: Color change (ΔE) after light irradiation, spectral color contrast meter. To be noted: irradiated with 10000 Lux./hr of light for 5 days; based on color tone immediately after manufacturing; mean of 5 tablets. Format: physicochemical. The protocol:
Using a spectral color contrast meter (NIPPON DENSHOKU INDUSTRIES CO., LTD., Model: SE-6000), the color change ΔE value of the preparation irradiated with 10000Lux./hr of light for 5 days was measured based on the color tone of the preparation immediately after manufacturing, and the mean value of the measurement value of 5 tablets was calculated.
as §1
For color change, the ΔE value of the amount of color change was measured using a spectral color contrast meter (NIPPON DENSHOKU INDUSTRIES CO., LTD., Model: SE-6000) based on the color tone of the drug product immediately after manufacturing, and the mean value of the measured value of 5 tablets was calculated.

For the molecule `Cc1nc(Nc2ncc(C(=O)Nc3c(C)cccc3Cl)s2)cc(N2CCN(CCO)CC2)n1` [dasatinib hydrate], the “stability under light stress testing” value in series [1] is reported as “no changes were observed”. Consider `Cc1nc(Nc2ncc(C(=O)Nc3c(C)cccc3Cl)s2)cc(N2CCN(CCO)CC2)n1` [Comparative Example 1, anhydrous dasatinib], for which the “total related substances (%)” value in series [2] amounted to 0.51%. Also, the “color change ΔE value” in series [3] amounted to 18.56.
